Literature values, collected in patent US20020099506A1, “Methods and apparatus for predicting ligand binding interactions” (priority 2000, published 2002).
Entries after “also recorded” stand apart in the source; their conditions may differ.

Tested on: histdyl t-RNA synthetase
Conditions: not given

Structure (SMILES) | recognition by the enzyme (experimental observations)
N[C@@H](Cc1c[nH]cn1)C(=O)O [histidine] | the only ligand recognized by this enzyme

Tested on: olfactory receptor S25 (OR S25)
Conditions: data of Malnic et al.; 24 odorants of 4-9 carbon atoms

Structure (SMILES) | experimental odor response of S25
CCCCCCCO [heptanol] | responds positively; also recorded: elicited measurable responses
CCCCCCO [hexanol] | responds positively; also recorded: elicited measurable responses

Tested on: olfactory receptor S18
Conditions: according to Malnic et al.

experimental response of S18 | Structure (SMILES)
responds experimentally | CCCCCCC(=O)O [heptanoic acid]
responds experimentally | CCCCCCCCC(=O)O [nonanoic acid]
responds experimentally | CCCCCCCCCO [nonanol]
responds experimentally | CCCCCCCC(=O)O [octanoic acid]
responds experimentally | CCCCCCCCO [octanol]

Structure (SMILES) | experimental response of S18
O=C(O)CCCCCCCBr [8-bromo-octanoic acid] | responds experimentally
